In patent US10758536B2, “Method for treating shingles with N-methanocarbathymidine (N-MCT)” (priority 2015, dated 2020):
Entries after “also recorded” stand apart in the source; their conditions may differ.

Assays:
VZV [1] = assay: Skin organ culture topical Assay 2: delayed treatment; type: cell-based, varicella-zoster virus
Procedure: (§1) Place 36 mL deionized sterile water into small beaker with stir bar. Slowly waft 900 mg of carbopol (980 NF, Lot # CCONLCC013, Lubrizol Corp) into water, avoiding clumps. Add equal volume N-MCT in 20% hydroxypropyl-β-cyclodextrin (Sigma) at 2× to reach the desired concentration. Add 2 drops NaOH (18% solution) to attain a pH near 5.0. Store at 4° C. The 0.5% cidofovir gel was made in a similar manner except that cidofovir was dissolved in water. The DMSO vehicle was prepared by adding a 2% DMSO solution in water to the carbopol suspension at a 1:1 ratio. Hydroxypropyl-β-cyclodextrin (HPBCD) was prepared by mixing 5.0 g with 20 mL sterile water. Stock solution of N-MCT was prepared by dissolving 90 mg N-MCT in 9 mL 20% HPBCD and sonicating for 1 min.
(§2) Human fetal skin was purchased from ABR and delivered by overnight courier on wet ice. The tissue was cleaned, disinfected in betadine and 70% ethanol, then cut into pieces approximately 1-cm^2. Each piece was inoculated with VZV-BAC-Luc strain that expresses firefly luciferase. Approximately 3 hours after inoculation, the pieces of skin were placed in NetWells above tissue culture medium and incubated overnight. The next day (Day 1) each piece of skin was soaked in D-luciferin for 45 min, and then scanned in the IVIS-50 instrument to measure Total Flux, which is a correlate of VZV pfu. The drug treatment began on Day 1 or later by spreading an aqueous gel (carbopol) containing N-MCT at concentrations of 0.05, 0.5, or 5% (see Assay 1 in Table 4 below). One group of skin was treated with cidofovir ([…] in carbopol gel) for a positive control. Each group contained 4-6 pieces of skin. The drug was applied daily until Day 5 (or other intervals), and then the skin pieces were scanned by IVIS to determine virus yield. […] The results were analyzed for statistical significance by ANOVA and Dunnett's post hoc test of multiple comparisons (GraphPad Prism).
This assay differs from Assay 1 in that the Vehicle was prepared with 10% HPBCD, which is the solvent for the N-MCT. Refer to Assay #2 in Table 4 above. Three groups were treated on Days 1-4 and scanned on Day 5, which is the typical assay protocol. Two groups were treated after a delay of several days, which more closely reflects a clinical scenario of zoster. All treated groups received the same preparation of 0.5% N-MCT in carbopol with 10% HPBCD. VZV yield was reduced in the Vehicle group during the treatment phase, and then rebounded. This was likely due to the effects of HPBCD, which has known antiviral properties. […] In contrast, VZV yield increased until Day 5 in the group that received no treatment until after this scan. The difference between this group and the Vehicle group was notable, since they were expected to be similar.

VZV [2] = assay: Skin organ culture topical Assay 1: dose dependence (carbopol gel); type: cell-based, varicella-zoster virus
Procedure: as §1
A skin organ culture model was used to evaluate N-MCT as a topical treatment for VZV. Human skin explants were inoculated with VZV by scarification and treated daily from 1-4 days post infection with N-MCT (0.05, 0.5, or 5%) or cidofovir (0.5%, positive control) in a carbopol gel.
as §2

[3] = Mouse weights and tolerability
Procedure: CB.17 scid/beige male mice were implanted subcutaneously with human fetal skin (the same type of specimens used for the skin organ culture assay). After 3 weeks engraftment period, the skin implants were inoculated with VZV-BAC-Luc. The mice were divided into 5 groups of 12 mice: vehicle, positive control drug, N-MCT low dose, medium dose, and high dose (see FIGS. 3A, 3B, 4A and 4B). Treatment began approximately 2 hours after the inoculation surgery and was administered by oral gavage. Treatment continued twice daily (8:30 am and 8:30 pm) on Days 1-7. The mice were scanned in the IVIS-200 instrument daily from Day 1-8. The mice were weighed before the start of the study and daily during the treatment phase.
CB.17 scid/beige male mice were implanted subcutaneously with human fetal skin (the same type of specimens used for the skin organ culture assay). After 3 weeks engraftment period, the skin implants were inoculated with VZV-BAC-Luc (5×10^3 pfu/implant). The mice were divided into 5 groups of 12 mice: vehicle, positive control drug cidofovir delayed to Days 4-11, N-MCT 50 mg/kg Days 0-7, Days 4-11, or Days 7-13 (see Table 6 below). Treatment began approximately 2 hours after the inoculation surgery and was administered by oral gavage. Treatment continued twice daily (8:30 am and 8:30 pm) on schedule. […] The mice were scanned in the IVIS-200 instrument daily from Day 1-14. The mice were weighed before the start of the study and daily during the treatment phase. The antiviral effects of N-MCT were determined by assessing the VZV growth kinetics and rates (Log10 Total Flux/day).
The animals used in this experiment were SCID-beige mice purchased from Taconic (age 6-7 weeks).

VZV [4] = assay: Skin organ culture assay, drug in medium; type: cell-based, varicella-zoster virus
Procedure: Human foreskin fibroblasts (HFFs) (CCD-1137Sk; American Type Culture Collection), used prior to passage 20 were grown in Eagle minimum essential medium with Earle's salts and L-glutamine (HyClone Laboratories), supplemented with 10% heat-inactivated fetal bovine serum (Benchmark FBS; Gemini Bio Products), penicillin-streptomycin (5000 IU/mL), amphotericin B (250 µg/mL), and nonessential amino acids (all Mediatech). VZV-BAC-Luc (Zhang et al., 2007), derived from the Parental Oka (POka, Accession number: AB097933) strain was propagated in HFFs. To prepare the virus for inoculation, VZV-infected HFFs were trypsinized, then washed and resuspended in TCM, and used immediately for direct injection. Each tissue was injected twice with 30 μL of the cell suspension using a 1 cc syringe fitted with a 27-gauge needle attached to a volumetric stepper (Tridak). The needle was lightly dragged across the tissue approximately 5 times to scarify the surface to increase infection. Tissues were incubated at 37° C. for 3 h to allow the virus to adhere, and then placed individually on NetWells that had contact with 1.0 mL of tissue culture medium. The cell-associated VZV inoculum was titered on MeWo cells (Taylor and Moffat, 2005) and was typically 1.5×10^6 pfu/mL, which is approximately 9×10^4 pfu/tissue.
In skin organ culture, higher concentrations of N-MCT were needed to reduce VZV spread; virus yield was reduced ˜100-fold when [N-MCT] was greater than 10 μg/mL.

[5] = 50 mg/kg oral gavage, delayed-treatment study
[6] = all doses, dose-range study in mice

**Q.** For `Cc1cn([C@]23C[C@H](O)[C@@H](CO)[C@@H]2C3)c(=O)[nH]c1=O` [N-MCT, N-methanocarbathymidine], which “VZV yield, treatment on Days 3-6” value (VZV [1]; 0.5% N-MCT QD 3-6 dpi, by Day 7) is on record?
**A.** reduced to a similar low level

**Q.** What about the “VZV yield, treatment begun on Day 5” value (VZV [1]; 0.5% N-MCT QD 5-8 dpi) of the same compound?
**A.** decreased sharply

**Q.** What about the “VZV rebound after treatment on Days 1-4” value (VZV [1]; 0.5% N-MCT in carbopol with 10% HPBCD) of the same compound?
**A.** no rebound was observed

**Q.** What about the “VZV yield, treatment on Days 1-4” value (VZV [1]; 0.5% in carbopol QD 1-4 dpi, during and after treatment) of the same compound?
**A.** equally reduced

**Q.** And the “effectiveness as topical treatment when VZV infection established for 3-5 days” value (VZV [1]; skin organ culture)?
**A.** highly effective

**Q.** What about the “VZV yield compared to vehicle” value (VZV [2]; N-MCT 0.05, 0.5, 5% or cidofovir in carbopol gel, daily, p<0.0004) of the same compound?
**A.** significantly reduced

**Q.** What about the “VZV replication in skin explants, topical gel” value (VZV [2]; N-MCT 0.05-5%, cidofovir 0.5% in carbopol gel) of the same compound?
**A.** prevented VZV replication

**Q.** And the “reduction of virus yield compared to the vehicle group” value (VZV [2]; all concentrations, topical carbopol gel, p=0.0004)?
**A.** approximately 100 fold

**Q.** And the “effective topical concentration, as low as” value (VZV [2]; carbopol gel with 10% hydroxypropyl-β-cyclodextrin, human skin explants)?
**A.** ≥ 0.05%

**Q.** And the tolerability [3, 5]?
**A.** well tolerated; also recorded: well-tolerated

**Q.** What about the weight loss [3, 5] of the same compound?
**A.** minimal weight loss

**Q.** What about the tolerability [3, 6] of the same compound?
**A.** well tolerated

**Q.** And the weight loss [3, 6]?
**A.** did not cause excessive weight loss

**Q.** And the “VZV growth in skin organ culture” value (VZV [4]; FIG. 2)?
**A.** prevents VZV growth

**Q.** What about the virus yield reduction (VZV [4]; [N-MCT] greater than 10 μg/mL, skin organ culture) of the same compound?
**A.** ~100 fold

**Q.** What about the “concentrations at which N-MCT prevents VZV spread in human skin explants” value (VZV [4]; human skin explants, drug in medium) of the same compound?
**A.** > 10 µg/mL
